# Measurements reported in patent US9776962B2, “Aromatic compounds with GPR40 agonistic activity” (TAKEDA PHARMACEUTICAL COMPANY LIMITED, priority 2013, dated 2017).
# Marks after values point to notes of the source that are not given here.
# How the values were obtained:
# human GPR40 = biological target: T1, human GPR40 (Homo sapiens, UniProt O14842); test: Evaluation of human GPR40 agonist activity with increase in intracellular Ca2+ concentration as an index (FLIPR); type: cell-based; conditions: test compound 1 μM; CHO(dhfr−) cells stably expressing human GPR40; 100% = 10 μM compound of Example 153, 0% = DMSO
# T1 construct: expressed in transfected cells
# How it was run: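 CHO(dhfr−) cells stably expressing full-length human GPR40 were loaded with Ca2+ probe for 1 h at room temperature, then given test compound at 1 μM final. Fluorescence was followed on FLIPR, with activity scaled to a reference agonist at 10 μM (100%) and DMSO (0%).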
# N-STZ-1.5 rats = test: Oral glucose tolerance test using N-STZ-1.5 rats (glucose-lowering effects and insulinotropic action); type: in vivo, rat; conditions: 3 mg/kg body weight oral, 1 hr before glucose loading 1.5 g/kg, male N-STZ-1.5 rats, n=6; for blood glucose decrease rate (%): glucose AUC (0-60 min) vs control group; for insulin increase rate (fold): insulin AUC (0-60 min) test group/control group
# Method: The glucose-lowering effects and insulinotropic action of the compound of the present invention were evaluated by an oral glucose tolerance test using N-STZ-1.5 rats.
# Streptozotocin (120 mg/kg) was subcutaneously administered to 1 or 2 days-old male Wistar Kyoto rats to prepare type 2 diabetic model N-STZ-1.5 rats. The rats were allowed free access to standard laboratory chow diet (CE-2, CLEA Japan, Inc.).
# Male N-STZ-1.5 rats (25-week-old) were fasted for 15-17 hr, and the body weight was measured. Heparin (Ajinomoto Co., Inc.) as an anticoagulant and aprotinin (SIGMA) as a protease inhibitor were added, blood samples were collected from tail vein. The blood was centrifuged, the concentrations of glucose and triglyceride in plasma were measured, and the rats were divided into each group (n=6) based on these parameters. A 0.5% methylcellulose (control group) or a 0.5% methylcellulose suspension containing a test compound (3 mg/kg body weight) was orally administered to the rats at 5 ml/kg and, 1 hr after the administration, glucose solution (Otsuka Pharmaceutical Co., Ltd.) was orally administered at 1.5 g/7.5 ml/kg. Immediately before (0 min value) and 10, 30 and 60 min after the glucose loading, blood was drawn from the tail vein, centrifuged, and the concentrations of glucose and insulin in plasma were measured. The glucose and triglyceride concentrations were measured by automatic analysis apparatus 7180 (Hitachi, Ltd.), and the insulin concentration was measured by rat insulin radioimmunoassay kit (MIllipore). The area under glucose curve (AUC) and insulin AUC were calculated using the following formulas, and the blood glucose decrease rate (%) and insulin increase rate (fold) were calculated by the following formulas from the obtained AUCs. A statistical significant difference from the control group was analyzed by the Dunnett's test or Steel's test.
# Glucose AUC (0-60 Min): {(0 min glucose in plasma)+(10 min glucose in plasma)}×10/2+{(10 min glucose in plasma)+(30 min glucose in plasma)}×20/2+{(30 min glucose in plasma)+(60 min glucose in plasma)}×30/2 insulin AUC (0-60 Min): {(0 min insulin in plasma)+(10 min insulin in plasma)}×10/2+{(10 min insulin in plasma)+(30 min insulin in plasma)}×20/2+{(30 min insulin in plasma)+(60 min insulin in plasma)}×30/2 Blood Glucose Decrease Rate (%): [(test compound administration group glucose AUC/control group glucose AUC)−1]×100 insulin Increase Rate (Fold):
# test compound administration group insulin AUC/control group insulin AUC
# T1 sequence (O14842 whole entry): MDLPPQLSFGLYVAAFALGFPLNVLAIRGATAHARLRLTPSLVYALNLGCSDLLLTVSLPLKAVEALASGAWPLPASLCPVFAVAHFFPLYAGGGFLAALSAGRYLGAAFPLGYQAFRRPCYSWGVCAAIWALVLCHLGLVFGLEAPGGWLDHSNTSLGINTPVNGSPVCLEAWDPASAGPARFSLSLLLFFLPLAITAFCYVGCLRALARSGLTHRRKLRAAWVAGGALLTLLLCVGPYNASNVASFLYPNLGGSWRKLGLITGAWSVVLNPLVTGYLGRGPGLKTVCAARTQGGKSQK
SMILES,activation at 1 µM (human GPR40),Activity (human GPR40 agonist activity) (human GPR40),blood glucose decrease rate (%) (N-STZ-1.5 rats),insulin increase rate (fold) (N-STZ-1.5 rats)
"COc1ccc(C(=O)N(CC(C)(C)C)c2nc(C)cc(C)n2)c(N2CCC(COc3cc([C@@H](CC(=O)O)C4CC4)ccn3)CC2)c1 [Example 246, (3S)-3-cyclopropyl-3-(2-((1-(2-((2,2-dimethylpropyl)(4,6-dimethylpyrimidin-2-yl)carbamoyl)-5-methoxyphenyl)piperidin-4-yl)methoxy)pyridin-4-yl)propanoic acid]",103%,–,42.7^$ %,2.1** fold
"COc1ccc(C(=O)N(CC(C)(C)F)c2cc(C)ccn2)c(N2CCC(COc3cc(C(CC(=O)O)C4CC4)ccn3)CC2)c1 (stereo not shown) [Example 185, 3-cyclopropyl-3-(2-((1-(2-((2-fluoro-2-methylpropyl)(4-methylpyridin-2-yl)carbamoyl)-5-methoxyphenyl)piperidin-4-yl)methoxy)pyridin-4-yl)propanoic acid]",–,–,30.8^$ %,1.6 fold
"COc1ccc(C(=O)N(CC(C)(C)C)c2ncccn2)c(N2CCC(COc3cc(C(CC(=O)O)C4CC4)ccn3)CC2)c1 (stereo not shown) [Example 184, 3-cyclopropyl-3-(2-((1-(2-((2,2-dimethylpropyl)(pyrimidin-2-yl)carbamoyl)-5-methoxyphenyl)piperidin-4-yl)methoxy)pyridin-4-yl)propanoic acid]",–,–,27.9^$ %,1.4 fold

# Continued, in another order:
activation at 1 µM (human GPR40),Activity (human GPR40 agonist activity) (human GPR40),SMILES,blood glucose decrease rate (%) (N-STZ-1.5 rats),insulin increase rate (fold) (N-STZ-1.5 rats)
–,102%,"COc1ccc(C(=O)N(CC(C)(C)C)c2cccc(C)n2)c(N2CCC(COc3cc([C@@H](CC(=O)O)C4CC4)ccn3)CC2)c1 [Example 245, (3S)-3-cyclopropyl-3-(2-((1-(2-((2,2-dimethylpropyl)(6-methylpyridin-2-yl)carbamoyl)-5-methoxyphenyl)piperidin-4-yl)methoxy)pyridin-4-yl)propanoic acid]",44.5^$ %,2.1** fold
102%,–,"COc1ccc(C(=O)N(CC(C)(C)C)c2ccccn2)c(N2CCC(COc3cc([C@@H](CC(=O)O)C4CC4)ccn3)CC2)c1 [Example 247, (3S)-3-cyclopropyl-3-(2-((1-(2-((2,2-dimethylpropyl)(pyridin-2-yl)carbamoyl)-5-methoxyphenyl)piperidin-4-yl)methoxy)pyridin-4-yl)propanoic acid]",41.5^$ %,2.0** fold
